Experimental data published in ChEMBL document CHEMBL1201862, “PubChem BioAssay data set” (2004).
Activity calls are given as the source filed them.

Assays:
[1] = luciferase reporter signal suppression in cells – H4 neuroglioma cells, luminescence, dose response (AID 1990); assay type: functional, cell-based
[2] = Luminescence Cell-Based Dose Response HTS to Identify Inhibitors of 5'UTR Stem-Loop Driven Prion Protein mRNA Translation in H4 Neuroglioblastoma Cells. [Related pubchem assays: 1827 (Project Summary), 1813 (Primary HTS)]; assay type: functional
[3] = alpha-synuclein stem-loop luciferase translation blockers – H4 neuroglioma cells, luminescence, confirmation (AID 1988); assay type: functional, cell-based
[4] = molecular target: T1, E3 ubiquitin-protein ligase XIAP (Homo sapiens, UniProt P98170); assay: Counter Screen using XIAP-Bir3 for Chemical Antagonists of Bir1/2 domains of IAP-family anti-apoptotic proteins. [Related pubchem assays (depositor defined):AID1018, AID1449, AID1514, AID1638, AID1749, AID1750, AID488957, AID488963]
T1 sequence (P98170 whole entry): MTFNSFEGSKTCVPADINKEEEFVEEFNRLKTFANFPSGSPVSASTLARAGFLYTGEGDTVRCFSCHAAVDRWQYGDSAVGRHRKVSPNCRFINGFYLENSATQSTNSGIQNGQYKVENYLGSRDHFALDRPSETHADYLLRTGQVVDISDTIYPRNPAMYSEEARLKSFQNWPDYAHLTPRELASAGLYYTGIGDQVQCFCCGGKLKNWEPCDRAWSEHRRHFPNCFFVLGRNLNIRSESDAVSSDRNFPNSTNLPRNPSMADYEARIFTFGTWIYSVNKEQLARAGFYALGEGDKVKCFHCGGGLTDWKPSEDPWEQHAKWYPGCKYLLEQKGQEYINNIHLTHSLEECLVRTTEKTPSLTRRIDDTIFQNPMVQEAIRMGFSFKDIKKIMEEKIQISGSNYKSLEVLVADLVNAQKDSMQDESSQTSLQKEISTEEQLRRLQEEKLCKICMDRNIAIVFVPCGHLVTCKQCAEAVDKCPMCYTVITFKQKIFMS

[5] = molecular target: T1, E3 ubiquitin-protein ligase XIAP; assay: small molecules displacing peptide from XIAP – biochemical, IAP family, fluorescence polarization (AID 1018); assay type: functional
HEK293 [6] = assay: inhibition of NOD1-driven NF-kB reporter – cell-based, luminescence, uHTS, primary screen (AID 1578); assay type: functional; details: Homo sapiens
[7] = test system: Streptococcus sp. 'group A'; assay: Streptococcus pyogenes SK(-)GAS viability under kanamycin – luminescence, BacTiterGlo, confirmation, counter-screen for streptokinase expression inhibitor project, dose response (AID 1900); assay type: functional, organism-based
HEK293 [8] = assay: cells; assay type: functional, cell-based; details: Homo sapiens
HEK293 [9] = assay: cells; assay type: functional, cell-based; details: Homo sapiens; remark: listed apart in the source
HEK293 [10] = assay: NOD2 signaling inhibitors in MDP-stimulated cells, cell-based, uHTS, luminescence (AID 2001); assay type: functional; details: Homo sapiens
Streptococcus = assay: GAS UMAA2166 growth inhibition – luminescence, BacTiterGlo, counter-screen for streptokinase expression inhibitor project, dose response (AID 1915); assay type: functional, organism-based;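 note: potency for reduction of bacterial viability or growth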
[11] = blockers of CRF-binding protein–CRF-R2 complex – cell-based, uHTS hits, 384-well, dose response (AID 651639); assay type: functional, Homo sapiens; details: read-out: IC50_Mean
HEK293 [12] = assay: cells; details: Homo sapiens
[13] = molecular target: Intestinal-type alkaline phosphatase (Mus musculus, UniProt P24822); assay: PubChem AID 488785; assay type: functional
Intestinal-type alkaline phosphatase (Mus musculus, UniProt P24822), sequence (P24822 whole entry): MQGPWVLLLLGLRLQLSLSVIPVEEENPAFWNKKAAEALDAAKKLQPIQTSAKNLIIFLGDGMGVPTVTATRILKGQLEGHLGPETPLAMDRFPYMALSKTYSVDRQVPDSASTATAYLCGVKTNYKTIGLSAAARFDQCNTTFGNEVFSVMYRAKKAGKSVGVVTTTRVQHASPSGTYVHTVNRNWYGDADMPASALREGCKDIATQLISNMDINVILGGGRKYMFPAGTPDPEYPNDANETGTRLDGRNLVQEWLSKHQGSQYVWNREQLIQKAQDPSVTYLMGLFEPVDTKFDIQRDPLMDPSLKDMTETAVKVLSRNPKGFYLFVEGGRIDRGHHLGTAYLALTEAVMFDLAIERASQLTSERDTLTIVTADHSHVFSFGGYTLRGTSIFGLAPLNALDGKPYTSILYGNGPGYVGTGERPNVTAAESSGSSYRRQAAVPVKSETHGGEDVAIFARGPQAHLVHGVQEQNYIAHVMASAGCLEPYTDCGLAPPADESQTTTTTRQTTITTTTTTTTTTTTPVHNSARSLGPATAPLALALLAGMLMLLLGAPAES

[14] = molecular target: T2, Alkaline phosphatase, tissue-nonspecific isozyme (Homo sapiens, UniProt P05186); assay: TNAP enzyme inhibition by screening hits, dose response, selectivity assay for mouse IAP inhibitor project, biochemical, human TNAP, uHTS hits (AID 488906); assay type: functional
T2 sequence (P05186 whole entry): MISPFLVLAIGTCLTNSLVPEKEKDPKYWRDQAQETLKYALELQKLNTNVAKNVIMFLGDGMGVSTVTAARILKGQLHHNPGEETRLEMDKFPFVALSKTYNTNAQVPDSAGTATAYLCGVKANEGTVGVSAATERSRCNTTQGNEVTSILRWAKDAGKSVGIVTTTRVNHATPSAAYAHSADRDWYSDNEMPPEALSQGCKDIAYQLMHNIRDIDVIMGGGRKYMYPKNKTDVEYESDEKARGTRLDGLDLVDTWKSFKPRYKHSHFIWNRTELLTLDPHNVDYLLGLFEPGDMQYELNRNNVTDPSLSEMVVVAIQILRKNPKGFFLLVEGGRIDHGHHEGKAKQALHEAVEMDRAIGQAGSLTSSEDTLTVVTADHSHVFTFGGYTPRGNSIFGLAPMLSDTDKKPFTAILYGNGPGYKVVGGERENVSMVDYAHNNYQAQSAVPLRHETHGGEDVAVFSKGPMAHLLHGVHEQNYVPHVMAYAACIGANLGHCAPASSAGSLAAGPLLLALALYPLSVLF

[15] = molecular target: Intestinal-type alkaline phosphatase (Homo sapiens, UniProt P09923); assay: inhibition of human intestinal alkaline phosphatase – biochemical, dose response (AID 488876); assay type: functional
Intestinal-type alkaline phosphatase (Homo sapiens, UniProt P09923), sequence (P09923 whole entry): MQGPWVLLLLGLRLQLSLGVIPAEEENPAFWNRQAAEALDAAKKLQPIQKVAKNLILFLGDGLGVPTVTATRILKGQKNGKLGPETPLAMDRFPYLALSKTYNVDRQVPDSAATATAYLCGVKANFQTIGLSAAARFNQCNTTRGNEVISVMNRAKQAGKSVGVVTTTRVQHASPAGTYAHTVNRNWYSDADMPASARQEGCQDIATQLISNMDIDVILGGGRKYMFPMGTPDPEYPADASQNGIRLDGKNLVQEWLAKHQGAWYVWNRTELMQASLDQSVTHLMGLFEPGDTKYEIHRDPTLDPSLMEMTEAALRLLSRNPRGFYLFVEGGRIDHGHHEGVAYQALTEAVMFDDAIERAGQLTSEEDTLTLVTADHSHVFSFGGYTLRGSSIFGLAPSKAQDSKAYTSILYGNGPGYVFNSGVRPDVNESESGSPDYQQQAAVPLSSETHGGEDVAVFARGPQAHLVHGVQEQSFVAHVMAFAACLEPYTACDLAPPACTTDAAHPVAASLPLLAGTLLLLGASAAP

[16] = NIH-3T3 fibroblast cytotoxicity, dose response, cytotoxicity control, cell-based, fluorescence, Alamar Blue, secondary assay (AID 2327); assay type: functional;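 note: NIH-3T3 mouse fibroblasts cultured with fluconazole at 8 µg/mL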
[17] = fluconazole-exposed Candida albicans growth modulators – fluorescence, retest, confirmation (AID 2467); assay type: functional, cell-based
[18] = Trypanosoma cruzi growth suppression in host cells – NIH3T3 host cells, beta-gal luminescence, confirmation (AID 2044); assay type: functional, cell-based;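 note: intracellular parasites grown in NIH/3T3 mouse fibroblasts as host cells; luminescent beta-galactosidase reporter signal from transgenic T. cruzi replicating inside host cells; inhibitors lower the luminescence signal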
[19] = NIH3T3 cell viability loss – ATP luminescence, mouse fibroblasts, counter-screen, dose response (AID 2010); assay type: functional, cell-based;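 note: cells exposed to compound for about 90 hours before reading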
Exodeoxyribonuclease V = molecular target: T3, Exodeoxyribonuclease V (Escherichia coli (strain K12), UniProt P04993+P07648+P08394); assay: RecBCD inhibition via phage-restricted bacterial growth – absorbance, V66 E. coli, mutant T4 phage, counter-screen for AddAB inhibitor project, dose response (AID 492957); assay type: functional, cell-based, Escherichia coli str. K-12 substr. MG1655
T3 sequence (P04993 whole entry): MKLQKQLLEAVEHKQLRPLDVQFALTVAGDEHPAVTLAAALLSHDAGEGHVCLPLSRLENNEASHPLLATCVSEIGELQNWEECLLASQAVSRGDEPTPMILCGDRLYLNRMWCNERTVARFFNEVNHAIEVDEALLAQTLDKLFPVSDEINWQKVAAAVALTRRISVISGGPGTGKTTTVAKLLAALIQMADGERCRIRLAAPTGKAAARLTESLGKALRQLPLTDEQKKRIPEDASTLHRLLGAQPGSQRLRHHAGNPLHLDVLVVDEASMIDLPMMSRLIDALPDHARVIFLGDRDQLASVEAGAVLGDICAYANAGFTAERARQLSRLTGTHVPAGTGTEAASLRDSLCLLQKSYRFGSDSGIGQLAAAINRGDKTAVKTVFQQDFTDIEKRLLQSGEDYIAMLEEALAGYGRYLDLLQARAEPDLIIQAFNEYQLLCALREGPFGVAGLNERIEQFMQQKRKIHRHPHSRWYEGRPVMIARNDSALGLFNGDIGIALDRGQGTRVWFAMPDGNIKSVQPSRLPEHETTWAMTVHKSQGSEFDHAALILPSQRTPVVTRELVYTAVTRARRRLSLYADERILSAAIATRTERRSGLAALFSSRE
T3 sequence (P07648 whole entry): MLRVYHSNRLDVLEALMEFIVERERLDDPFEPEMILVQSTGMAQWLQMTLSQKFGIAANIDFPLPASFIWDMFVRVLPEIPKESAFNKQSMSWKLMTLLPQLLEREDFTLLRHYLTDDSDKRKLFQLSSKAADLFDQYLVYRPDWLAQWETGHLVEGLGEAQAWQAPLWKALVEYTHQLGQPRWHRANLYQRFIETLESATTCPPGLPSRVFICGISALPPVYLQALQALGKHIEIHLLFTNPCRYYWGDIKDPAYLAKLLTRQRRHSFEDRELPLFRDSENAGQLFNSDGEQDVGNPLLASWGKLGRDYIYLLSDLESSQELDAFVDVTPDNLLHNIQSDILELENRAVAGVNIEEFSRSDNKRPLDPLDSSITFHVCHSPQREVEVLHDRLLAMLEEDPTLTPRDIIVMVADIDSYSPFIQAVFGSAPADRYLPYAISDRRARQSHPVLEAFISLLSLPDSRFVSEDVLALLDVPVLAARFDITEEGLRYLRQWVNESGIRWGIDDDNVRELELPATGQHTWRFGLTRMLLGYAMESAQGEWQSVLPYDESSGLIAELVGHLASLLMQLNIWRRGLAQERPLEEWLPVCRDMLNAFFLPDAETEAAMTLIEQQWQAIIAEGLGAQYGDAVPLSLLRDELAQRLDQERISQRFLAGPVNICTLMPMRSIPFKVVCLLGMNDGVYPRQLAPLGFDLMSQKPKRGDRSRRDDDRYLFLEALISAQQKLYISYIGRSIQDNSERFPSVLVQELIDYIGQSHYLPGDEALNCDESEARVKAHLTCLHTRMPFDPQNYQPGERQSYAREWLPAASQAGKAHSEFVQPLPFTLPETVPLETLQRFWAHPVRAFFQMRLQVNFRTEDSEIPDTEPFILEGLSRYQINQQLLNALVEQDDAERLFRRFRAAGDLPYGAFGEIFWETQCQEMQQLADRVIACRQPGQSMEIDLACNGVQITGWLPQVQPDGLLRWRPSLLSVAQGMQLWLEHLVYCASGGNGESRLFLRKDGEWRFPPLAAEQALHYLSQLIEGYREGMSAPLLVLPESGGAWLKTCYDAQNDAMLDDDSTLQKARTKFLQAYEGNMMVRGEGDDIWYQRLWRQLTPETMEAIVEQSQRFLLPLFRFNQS
T3 sequence (P08394 whole entry): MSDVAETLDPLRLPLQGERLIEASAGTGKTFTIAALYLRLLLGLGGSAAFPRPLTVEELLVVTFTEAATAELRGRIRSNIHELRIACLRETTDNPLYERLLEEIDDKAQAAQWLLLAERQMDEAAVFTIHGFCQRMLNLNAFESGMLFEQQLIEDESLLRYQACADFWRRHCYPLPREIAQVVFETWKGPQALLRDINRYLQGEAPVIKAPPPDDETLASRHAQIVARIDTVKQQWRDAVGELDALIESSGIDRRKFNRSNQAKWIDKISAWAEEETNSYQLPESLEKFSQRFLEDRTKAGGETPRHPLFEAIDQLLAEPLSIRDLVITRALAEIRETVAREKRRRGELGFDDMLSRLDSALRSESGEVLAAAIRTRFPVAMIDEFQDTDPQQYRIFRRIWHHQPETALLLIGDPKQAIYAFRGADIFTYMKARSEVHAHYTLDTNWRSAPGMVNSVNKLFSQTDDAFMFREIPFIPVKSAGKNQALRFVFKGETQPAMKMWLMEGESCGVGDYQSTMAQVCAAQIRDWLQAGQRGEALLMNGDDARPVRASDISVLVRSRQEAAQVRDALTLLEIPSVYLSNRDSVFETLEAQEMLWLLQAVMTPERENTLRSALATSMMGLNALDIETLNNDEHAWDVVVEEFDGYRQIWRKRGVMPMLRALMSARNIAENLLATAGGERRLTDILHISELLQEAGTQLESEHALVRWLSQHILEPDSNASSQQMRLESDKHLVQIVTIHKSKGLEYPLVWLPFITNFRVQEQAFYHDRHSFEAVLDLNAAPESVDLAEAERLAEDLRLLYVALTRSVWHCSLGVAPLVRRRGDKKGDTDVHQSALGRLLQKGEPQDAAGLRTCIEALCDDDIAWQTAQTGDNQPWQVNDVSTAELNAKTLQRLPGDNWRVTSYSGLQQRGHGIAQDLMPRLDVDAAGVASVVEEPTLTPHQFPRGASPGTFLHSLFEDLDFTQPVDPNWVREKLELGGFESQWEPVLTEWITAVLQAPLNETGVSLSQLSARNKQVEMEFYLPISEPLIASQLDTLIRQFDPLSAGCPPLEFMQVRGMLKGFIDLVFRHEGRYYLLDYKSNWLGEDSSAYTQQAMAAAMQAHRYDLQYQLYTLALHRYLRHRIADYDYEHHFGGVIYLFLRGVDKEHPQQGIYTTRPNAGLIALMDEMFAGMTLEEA

[20] = Counterscreen for AddAB inhibitors: absorbance-based bacterial cell-based high throughput dose response assay for inhibitors of bacterial viability. [Related pubchem assays (depositor defined):AID435030, AID449728, AID449731, AID488942, AID488955, AID488956]; assay type: functional
cells [21] = assay type: functional, cell-based
cells [22] = assay type: functional, cell-based; remark: listed apart in the source
[23] = molecular target: Heat shock protein HSP 90-alpha (Homo sapiens, UniProt P07900); assay type: functional, organism-based
INS1 = assay: INS-1E survival protection against cytokine death – cell-based, luminescence, retest, dose response (AID 449756); assay type: functional; details: Rattus norvegicus;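 note: cell death triggered by IL-1 beta plus TNF-alpha plus IFN-gamma mixture; protective hits raise ATP signal compared with cytokine alone wells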
[24] = HGIII-sPLA2 enzyme inhibition potency – biochemical, QFRET, IC50, dose response (AID 743457);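 note: green fluorescence rise as the enzyme cleaves BODIPY PC-A2 in liposomes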

Compound: O=C(c1cc(-n2cnnc2)ccc1Cl)N1CCN(c2nc(-c3ccccc3)cs2)CC1
- EC50 [1]: > 30 µM (not active)
- EC50 [2]: 15.1 µM (active)
- EC50 [3]: > 120 µM (not active)
- IC50 [4]: > 100 µM (inactive)
- IC50 [5]: > 100 µM (not active)

Compound: CCN(CC)S(=O)(=O)c1cccc(C(=O)c2c(C)cc3ccccn23)c1
- IC50 [4]: > 100 µM (inactive)
- IC50 [5]: > 100 µM (not active)

Compound: Cc1ccc(SCc2cc(O)nc(SCC(=O)Nc3cc(Cl)ccc3Cl)n2)cc1
- EC50 (HEK293 [6]): 6.75 µM (active)
- EC50 [7]: 9.13 µM (active)
- IC50 (HEK293 [8]): > 20 µM (inactive)
- IC50 (HEK293 [9]): > 20 µM (inactive)
- IC50 (HEK293 [10]): 9.47 µM (inactive)
- EC50 (Streptococcus): 38.5 µM (active)
- IC50 [11]: > 20 µM (inactive)
- IC50 (HEK293 [12]): > 20 µM (inactive)

Compound: O=C(Nc1cccc(-c2cccc(Cl)c2)c1)C1CCN(C2CCC2)CC1
- IC50 [13]: 9.39 µM (active)
- IC50 [14]: 11.8 µM (active)
- IC50 [15]: 8.64 µM (active)

Compound: Cc1ccc(CN2C3CCCC2CC(NC(=O)Nc2cccc(F)c2)C3)cc1 (centres undefined)
- IC50 [13]: 9.9 µM (active)
- IC50 [14]: 63.3 µM (active)
- IC50 [15]: > 100 µM (inactive)

Compound: O=C(NCCCCc1ccccc1)NC[C@@H]1CC[C@@H](Cc2ccc(-c3ccccc3)cc2)O1
- IC50 [13]: 2.6 µM (active)
- IC50 [14]: 15.6 µM (active)
- IC50 [15]: 2.1 µM (active)

Compound: CC(C)C(c1nnnn1C(C)(C)C)N1CCC(Cc2ccccc2)CC1 (centres undefined)
- IC50 [4]: > 100 µM (inactive)
- IC50 [5]: > 100 µM (not active)

Compound: C=CCc1cccc(/C=N/NC(=O)CNc2ccccc2OC)c1O
- EC50 [16]: > 160 µM (inactive)
- EC50 [17]: > 38 µM (not active)
- EC50 [18]: 2.01 µM (active)
- EC50 [19]: 7.37 µM (active)
- IC50 (Exodeoxyribonuclease V): > 119 µM (inactive)
- IC50 [20]: > 119 µM (inactive)

Compound: CCCCC(=O)NC(c1cccs1)c1cc(Cl)c2cccnc2c1O (centres undefined)
- EC50 (cells [21]): 57.5 µM (active)
- EC50 (cells [22]): > 350 µM (not active)
- IC50 (Exodeoxyribonuclease V): > 119 µM (inactive)
- IC50 [20]: > 119 µM (inactive)
- AC50 [23]: 3.6 µM (active)
- AC50 (INS1): 1.19 µM (active)
- IC50 [24]: > 122 µM (inactive)
